# In US20110034531A1, “USE OF HDAC INHIBITORS FOR THE TREATMENT OF MELANOMA” (NOVARTIS AG, priority 2007, published 2011):
# Tests used:
# WM-266-4 = experiment: Monolayer growth inhibition assay (MTT/MTS), WM-266-4; type: cell-based; conditions: WM-266-4 melanoma cell line, treated for 3 days
# Text: (§1) The MTT is a colorimetric assay to determine the cell proliferation rate. The yellow tetrazolium MTT (3-(4,5-dimethylthiazolyl-2)-2,5-diphenyltetrazolium bromide) is reduced by metabolically active cells, in part by the action of dehydrogenase enzymes, to generate reducing equivalents, such as NADH and NADPH. The resulting intracellular purple formazan can be solubilized and quantified by spectrophotometric means. The signals produced is directly proportional to the cell numbers. Describing the MTT assay in detail, experiments were done using six-point or nine-point drug titrations in multi-well tissue culture dishes, with outer rows left empty. Cells were suspended in complete media at densities of between 10^3 and 10^4 cell/mL, respectively, and added per well. The appropriate medium (200 μL) was then added. […] This plate was incubated at 37° C. for 4 hours and the optical density was measured on a Molecular Devices Thermomax at 490 nm using the Softmax program. […]
# (§2) Compound addition began 24 hours after seeding, the same time as the T0 determination. […] The MTS solution was added (as for the To plate) and read 4 hours later. […]
# (§3) A panel of Melanoma cell lines were treated with DMSO vehicle control or varying concentrations of LBH589 for 3 days. Cell proliferation was measured on the day of cell plating and on the third day post-treatment. IC50 and LD50 values were calculated as described above.
# G-361 = experiment: Monolayer growth inhibition assay (MTT/MTS), G-361; type: cell-based; conditions: G-361 melanoma cell line, treated for 3 days
# Text: as §1, §2, §3
# SK-MEL-5 = experiment: Monolayer growth inhibition assay (MTT/MTS), SK-MEL-5; type: cell-based; conditions: SK-MEL-5 melanoma cell line, treated for 3 days
# Text: as §1, §2, §3
# SK-MEL-28 = experiment: Monolayer growth inhibition assay (MTT/MTS), SK-MEL-28; type: cell-based; conditions: SK-MEL-28 melanoma cell line, treated for 3 days
# Text: as §1, §2, §3
# [1] = system: panel of Melanoma cell lines
# Text: as §1, §2, §3
# A2058 = experiment: Monolayer growth inhibition assay (MTT/MTS), A2058; type: cell-based; conditions: A2058 melanoma cell line, treated for 3 days
# Text: as §1, §2, §3
# RPMI-7951 = experiment: Monolayer growth inhibition assay (MTT/MTS), RPMI-7951; type: cell-based; conditions: RPMI-7951 melanoma cell line, treated for 3 days
# Text: as §1, §2, §3
# MeWo = experiment: Monolayer growth inhibition assay (MTT/MTS), MeWo; type: cell-based; conditions: MeWo melanoma cell line, treated for 3 days
# Text: as §1, §2, §3
# A375 = experiment: Monolayer growth inhibition assay (MTT/MTS), A375; type: cell-based; conditions: A375 melanoma cell line, treated for 3 days
# Text: as §1, §2, §3
# [2] = Homo sapiens, 72 h, read-out: IC50 [nM] Measure of Cell Growth Inhibition
# [3] = concentration reducing cell number to 50% of original inoculum
compound,measurement,setting,value
"Cc1[nH]c2ccccc2c1CCNCc1ccc(/C=C/C(=O)NO)cc1 [LBH589, N-hydroxy-3-[4-[[[2-(2-methyl-1H-indol-3-yl)-ethyl]-amino]methyl]phenyl]-2E-2-propenamide]",IC50,WM-266-4; [2],26.4 nM
same,LD50 (nM) Measure of Cell Kill,WM-266-4; [3],73.05 nM
same,LD50 (nM) Measure of Cell Kill,G-361; [3],51.44 nM
same,IC50,G-361; [2],8.09 nM
same,IC50,SK-MEL-5; [2],6.15 nM
same,LD50 (nM) Measure of Cell Kill,SK-MEL-5; [3],54.95 nM
same,IC50,SK-MEL-28; [2],43.1 nM
same,LD50 (nM) Measure of Cell Kill,SK-MEL-28; [3],129.33 nM
same,"LD50, cytotoxic effect",[1]; 3 days,< 160 nM
same,"IC50 values, anti-proliferative effect","[1]; all 8 melanoma cell lines examined, treated for 3 days",low nanomolar
same,LD50 (nM) Measure of Cell Kill,A2058; [3],58.96 nM
same,IC50,A2058; [2],17.8 nM
same,IC50,RPMI-7951; [2],27.6 nM
same,LD50 (nM) Measure of Cell Kill,RPMI-7951; [3],71.63 nM
same,IC50,MeWo; [2],34.5 nM
same,LD50 (nM) Measure of Cell Kill,MeWo; [3],157.64 nM
same,LD50 (nM) Measure of Cell Kill,A375; [3],77.83 nM
same,IC50,"A375; Homo sapiens, A-375, 72 h, read-out: IC50 [nM] Measure of Cell Growth Inhibition",32.7 nM
